The values below come from US8916573B2, “Quinazoline-2,4-dione derivatives” (Actelion Pharmaceuticals Ltd., priority 2011, dated 2014).

Converted amounts (≈) assume the structure as drawn. A value given as a limit tells only on which side of the number the result lay.

In one assay the test system is S. aureus 29213. Nature of the assay: Bacterial growth minimal inhibitory concentrations (microdilution, cation-adjusted Mueller-Hinton Broth, CLSI M7-A7). It counts as cell-based. The conditions noted are these: Staphylococcus aureus, 29213; microdilution in cation-adjusted Mueller-Hinton Broth. How it is done:
Bacterial Growth Minimal Inhibitory Concentrations: Minimal inhibitory concentrations (MICs; mg/l) were determined in cation-adjusted MuellerHinton Broth by a microdilution method following the description given in “Methods for Dilution Antimicrobial Susceptibility Tests for Bacteria that Grow Aerobically”, Approved standard, 7th ed., Clinical and Laboratory Standards Institute (CLSI) Document M7-A7, Wayne, Pa., USA, 2006. Typical antibacterial test results are given in Table 1 hereafter (MIC in mg/l).
`Cc1cccc2c(=O)n(CCC[C@H]3CN(c4ccc5c(n4)NC(=O)CS5)C(=O)O3)c(=O)[nH]c12` [Example 14, 8-methyl-3-{3-[(S)-2-oxo-3-(3-oxo-3,4-dihydro-2H-pyrido[3,2-b][1,4]thiazin-6-yl)-oxazolidin-5-yl]-propyl}-1H-quinazoline-2,4-dione] yielded an MIC of at most 0.016 µg/mL.

As for `O=C1CSc2ccc(N3C[C@@H](CNCCn4c(=O)[nH]c5c(Cl)cccc5c4=O)OC3=O)cc2N1` [Example 64, 8-chloro-3-(2-{[(R)-2-oxo-3-(3-oxo-3,4-dihydro-2H-benzo[1,4]thiazin-6-yl)-oxazolidin-5-ylmethyl]-amino}-ethyl)-1H-quinazoline-2,4-dione], the lowest concentration to inhibit growth (MIC) was 0.25 µg/mL (≈ 0.498 µM).

For the compound `COc1cccc2c(=O)n(CCC[C@@H]3CN(c4ccc5c(c4)NC(=O)CS5)C(=O)O3)c(=O)[nH]c12` [Example 36, 8-methoxy-3-{3-[(R)-2-oxo-3-(3-oxo-3,4-dihydro-2H-benzo[1,4]-thiazin-6-yl)-oxazolidin-5-yl]-propyl}-1H-quinazoline-2,4-dione], the MIC worked out at 0.031 µg/mL (≈ 0.0642 µM).

`Cc1cccc2c1c(=O)n(CCNC[C@H]1CN(c3ccc4c(n3)NC(=O)CS4)C(=O)O1)c(=O)n2C` [Example 58, 1,5-dimethyl-3-(2-{[(S)-2-oxo-3-(3-oxo-3,4-dihydro-2H-pyrido[3,2-b][1,4]thiazin-6-yl)-oxazolidin-5-ylmethyl]-amino}-ethyl)-1H-quinazoline-2,4-dione] had an MIC of at most 0.016 µg/mL.

As to `Cc1cccc2c1c(=O)n(CCC[C@H]1CN(c3ccc4c(c3)NC(=O)CS4)C(=O)O1)c(=O)n2C` [Example 6, 1,5-dimethyl-3-{3-[(S)-2-oxo-3-(3-oxo-3,4-dihydro-2H-benzo[1,4]-thiazin-6-yl)-oxazolidin-5-yl]-propyl}-1H-quinazoline-2,4-dione], it took 0.031 µg/mL (≈ 0.0645 µM) to inhibit growth (MIC).

For the compound `Cn1c(=O)n(CCNC[C@@H]2CN(c3ccc4c(c3)NC(=O)CS4)C(=O)O2)c(=O)c2cccc(Cl)c21` [Example 61, 8-chloro-1-methyl-3-(2-{[(R)-2-oxo-3-(3-oxo-3,4-dihydro-2H-benzo[1,4]thiazin-6-yl)-oxazolidin-5-ylmethyl]-amino}-ethyl)-1H-quinazoline-2,4-dione], the MIC was at most 0.016 µg/mL.

Regarding `O=C1CSc2ccc(N3C[C@@H](CCCn4c(=O)[nH]c5cc(F)ccc5c4=O)OC3=O)cc2N1` [Example 28, 7-fluoro-3-{3-[(R)-2-oxo-3-(3-oxo-3,4-dihydro-2H-benzo[1,4]thiazin-6-yl)-oxazolidin-5-yl]-propyl}-1H-quinazoline-2,4-dione], the minimal inhibitory concentration (MIC) stood at 0.063 µg/mL (≈ 0.134 µM).

`O=C1CSc2ccc(N3C[C@H](CCCn4c(=O)[nH]c5ccccc5c4=O)OC3=O)cc2N1` [Example 1, 3-{3-[(S)-2-oxo-3-(3-oxo-3,4-dihydro-2H-benzo[1,4]thiazin-6-yl)-oxazolidin-5-yl]-propyl}-1H-quinazoline-2,4-dione] gave an MIC of at most 0.016 µg/mL.

`Cn1c(=O)n(CCC[C@H]2CN(c3ccc4c(n3)NC(=O)CS4)C(=O)O2)c(=O)c2ccccc21` [Example 2, 1-methyl-3-{3-[(S)-2-oxo-3-(3-oxo-3,4-dihydro-2H-pyrido[3,2-b][1,4]thiazin-6-yl)-oxazolidin-5-yl]-propyl}-1H-quinazoline-2,4-dione] had an MIC of at most 0.016 µg/mL.

For `Cn1c(=O)n(CCNC[C@H]2CN(c3ccc4c(n3)NC(=O)CS4)C(=O)O2)c(=O)c2cccc(Cl)c21` [Example 62, 8-chloro-1-methyl-3-(2-{[(S)-2-oxo-3-(3-oxo-3,4-dihydro-2H-pyrido[3,2-b][1,4]thiazin-6-yl)-oxazolidin-5-ylmethyl]-amino}-ethyl)-1H-quinazoline-2,4-dione], the MIC was at most 0.016 µg/mL.

Consider `O=C1CSc2ccc(N3C[C@H](CCCn4c(=O)[nH]c5c(Cl)cccc5c4=O)OC3=O)cc2N1` [Example 29, 8-chloro-3-{3-[(S)-2-oxo-3-(3-oxo-3,4-dihydro-2H-benzo[1,4]-thiazin-6-yl)-oxazolidin-5-yl]-propyl}-1H-quinazoline-2,4-dione], for which the MIC was at most 0.016 µg/mL.

Regarding `Cn1c(=O)n(CCNC[C@@H]2CN(c3ccc4c(c3)NC(=O)CS4)C(=O)O2)c(=O)c2ccccc21` [Example 56, 1-methyl-3-(2-{[(R)-2-oxo-3-(3-oxo-3,4-dihydro-2H-benzo[1,4]thiazin-6-yl)-oxazolidin-5-ylmethyl]-amino}-ethyl)-1H-quinazoline-2,4-dione], the MIC was 0.125 µg/mL (≈ 0.26 µM).

Take `O=C1CSc2ccc(N3C[C@@H](CCCn4c(=O)[nH]c5cc(F)c(F)cc5c4=O)OC3=O)cc2N1` [Example 38, 6,7-difluoro-3-{3-[(R)-2-oxo-3-(3-oxo-3,4-dihydro-2H-benzo[1,4]thiazin-6-yl)-oxazolidin-5-yl]-propyl}-1H-quinazoline-2,4-dione]: the lowest concentration to inhibit growth (MIC) was 0.063 µg/mL (≈ 0.129 µM).

`O=C1CSc2ccc(N3C[C@H](CCCn4c(=O)[nH]c5cccc(Cl)c5c4=O)OC3=O)cc2N1` [Example 18, 5-chloro-3-{3-[(S)-2-oxo-3-(3-oxo-3,4-dihydro-2H-benzo[1,4]thiazin-6-yl)-oxazolidin-5-yl]-propyl}-1H-quinazoline-2,4-dione] had an MIC of at most 0.016 µg/mL.

Compound `O=C1CSc2ccc(N3C[C@H](CCCn4c(=O)[nH]c5cc6ccccc6cc5c4=O)OC3=O)cc2N1` [Example 42, 3-{3-[(S)-2-oxo-3-(3-oxo-3,4-dihydro-2H-benzo[1,4]-thiazin-6-yl)-oxazolidin-5-yl]-propyl}-1H-benzo[g]quinazoline-2,4-dione] came in with an MIC of 0.031 µg/mL (≈ 0.0617 µM).

In the case of `COc1ccc2[nH]c(=O)n(CCC[C@@H]3CN(c4ccc5c(c4)NC(=O)CS5)C(=O)O3)c(=O)c2c1` [Example 34, 6-methoxy-3-{3-[(R)-2-oxo-3-(3-oxo-3,4-dihydro-2H-benzo[1,4]-thiazin-6-yl)-oxazolidin-5-yl]-propyl}-1H-quinazoline-2,4-dione], the MIC stood at 0.063 µg/mL (≈ 0.131 µM).

Compound `O=C1CSc2ccc(N3C[C@@H](CNCCn4c(=O)[nH]c5ccccc5c4=O)OC3=O)cc2N1` [Example 54, 3-(2-{[(R)-2-oxo-3-(3-oxo-3,4-dihydro-2H-benzo[1,4]thiazin-6-yl)-oxazolidin-5-ylmethyl]-amino}-ethyl)-1H-quinazoline-2,4-dione] yielded an MIC of 1 µg/mL (≈ 2.14 µM).

Take `O=C1COc2ccc(N3C[C@@H](CCCn4c(=O)[nH]c5cccc(Cl)c5c4=O)OC3=O)nc2N1` [Example 20, 5-chloro-3-{3-[(R)-2-oxo-3-(3-oxo-3,4-dihydro-2H-pyrido[3,2-b][1,4]oxazin-6-yl)-oxazolidin-5-yl]-propyl}-1H-quinazoline-2,4-dione]: the MIC turned out to be 0.125 µg/mL (≈ 0.265 µM).

Compound `O=C1CSc2ccc(N3C[C@@H](CCCn4c(=O)[nH]c5cccc(Cl)c5c4=O)OC3=O)cc2N1` [Example 16, 5-chloro-3-{3-[(R)-2-oxo-3-(3-oxo-3,4-dihydro-2H-benzo[1,4]thiazin-6-yl)-oxazolidin-5-yl]-propyl}-1H-quinazoline-2,4-dione] displayed an MIC of 0.031 µg/mL (≈ 0.0637 µM).

Consider `Cc1cccc2c(=O)n(CCC[C@@H]3CN(c4ccc5c(n4)NC(=O)CO5)C(=O)O3)c(=O)[nH]c12` [Example 15, 8-methyl-3-{3-[(R)-2-oxo-3-(3-oxo-3,4-dihydro-2H-pyrido[3,2-b][1,4]oxazin-6-yl)-oxazolidin-5-yl]-propyl}-1H-quinazoline-2,4-dione], for which the MIC amounted to 0.063 µg/mL (≈ 0.14 µM).

With `COc1cccc2[nH]c(=O)n(CCC[C@@H]3CN(c4ccc5c(c4)NC(=O)CS5)C(=O)O3)c(=O)c12` [Example 33, 5-methoxy-3-{3-[(R)-2-oxo-3-(3-oxo-3,4-dihydro-2H-benzo[1,4]-thiazin-6-yl)-oxazolidin-5-yl]-propyl}-1H-quinazoline-2,4-dione], it took 0.125 µg/mL (≈ 0.259 µM) to inhibit growth (MIC).

Regarding `COC(=O)/C=C/c1ccc2c(=O)n(CCNC[C@H]3CN(c4ccc5c(c4)NC(=O)CS5)C(=O)O3)c(=O)n(C)c2c1` [Example 65, (E)-3-[1-methyl-2,4-dioxo-3-(2-{[(S)-2-oxo-3-(3-oxo-3,4-dihydro-2H-benzo[1,4]thiazin-6-yl)-oxazolidin-5-ylmethyl]-amino}-ethyl)-1,2,3,4-tetrahydro-quinazolin-7-yl]-acrylic acid methyl ester], the MIC was determined as 0.125 µg/mL (≈ 0.221 µM).

`Cn1c(=O)n(CCNC[C@H]2CN(c3ccc4c(n3)NC(=O)CO4)C(=O)O2)c(=O)c2cccc(Cl)c21` [Example 69, 8-chloro-1-methyl-3-(2-{[(S)-2-oxo-3-(3-oxo-3,4-dihydro-2H-pyrido[3,2-b][1,4]oxazin-6-yl)-oxazolidin-5-ylmethyl]-amino}-ethyl)-1H-quinazoline-2,4-dione] had an MIC of 0.031 µg/mL (≈ 0.0619 µM).

In the case of `O=C1CSc2ccc(N3C[C@@H](CCCn4c(=O)[nH]c5c(Cl)cccc5c4=O)OC3=O)cc2N1` [Example 21, 8-chloro-3-{3-[(R)-2-oxo-3-(3-oxo-3,4-dihydro-2H-benzo[1,4]thiazin-6-yl)-oxazolidin-5-yl]-propyl}-1H-quinazoline-2,4-dione], the minimal inhibitory concentration (MIC) is at most 0.016 µg/mL.

The compound `O=C1CSc2ccc(N3C[C@@H](CCCn4c(=O)c5cccc6c5n(c4=O)CCC6)OC3=O)cc2N1` [Example 41, 2-{3-[(R)-2-oxo-3-(3-oxo-3,4-dihydro-2H-benzo[1,4]thiazin-6-yl)-oxazolidin-5-yl]-propyl}-6,7-dihydro-5H-pyrido[3,2,1-ij]quinazoline-1,3-dione] yielded an MIC of 0.25 µg/mL (≈ 0.508 µM).

For the compound `Cn1c(=O)n(C[C@H](O)CC[C@@H]2CN(c3ccc4c(c3)NC(=O)CO4)C(=O)O2)c(=O)c2ccccc21` (racemic) [Example 49, 3-{(RS)-2-hydroxy-4-[(RS)-2-oxo-3-(3-oxo-3,4-dihydro-2H-benzo[1,4]oxazin-6-yl)-oxazolidin-5-yl]-butyl}-1-methyl-1H-quinazoline-2,4-dione], inhibition of growth (MIC) required 1 µg/mL (≈ 2.08 µM).

The same assay, now with this note: microdilution in cation-adjusted Mueller-Hinton Broth.
With `O=C1CSc2ccc(N3C[C@@H](CNCCn4c(=O)c5cccc6c5n(c4=O)CCC6)OC3=O)cc2N1` [Example 66, 2-(2-{[(R)-2-oxo-3-(3-oxo-3,4-dihydro-2H-benzo[1,4]thiazin-6-yl)-oxazolidin-5-ylmethyl]-amino}-ethyl)-6,7-dihydro-5H-pyrido[3,2,1-#]quinazoline-1,3-dione], the “MIC for S. aureus 29213” value came out at 0.031 µg/mL.
